According to patent US20120010075A1 (priority 2009, published 2012):
Like-named read-outs stand apart in the source and are kept apart here.

Tests used:
Phytophthora infestans = type: in vivo, Phytophthora infestans on tomato; conditions: applied 24 h before inoculation, assessed 7 days after inoculation
[1] = system: Leptosphaeria nodorum (LEPTNO); assay: In vitro fungitoxicity of hydrazones with and without copper towards Leptosphaeria nodorum (Example 26); type: cell-based; conditions: 72 h at 25° C.; for inhibition of growth at 0.05 µg/mL: Parastagonospora nodorum, 72 h, copper-minus medium, read-out: LEPTNO % Inhn. Minus Copper Observed
[2] = hydrazone 50 ppm + 50 μM CuCl2.2H2O, tomato
[3] = compound 0.05 μg/mL, copper-plus medium (CuCl2.2H2O)
[4] = hydrazone 50 ppm with 50 μM CuCl2.2H2O, tomato late blight
[5] = test compound Concn. 0.05 μg/mL
[6] = copper-plus medium (CuCl2 10 μM), test compound Concn. 0.05 μg/mL

SMILES	TLB % Control (Phytophthora infestans; [2]) [%]	inhibition of growth at 0.05 µg/mL ([1]; compound 0.05 μg/mL) [%]	LEPTNO % Inhn. Plus Copper Observed [1, 3] [%]	melting point [°C]	TLB % Control (Phytophthora infestans; [4]) [%]	inhibition of growth at 0.05 µg/mL [1, 5] [%]	LEPTNO % Inhn. Plus Copper Observed [1, 6] [%]
COc1cccc(C(=O)N/N=C/c2cc(Br)cc(Br)c2O)c1C [Example 108]	50.9	21.3	97.6	188 to 189	–	–	–
O=C(N/N=C/c1cccc(C(F)(F)F)c1O)c1ccccc1C(F)(F)F [Example 353]	–	–	–	169 to 171	81.0	0	94.8
COc1cc(O)c(/C(C)=N/NC(=O)c2cccc(Cl)c2)c(OC)c1 [Example 567]	–	–	–	206 to 215	14.0	2.5	42.3
Cc1ccc(C(=O)N/N=C/c2cc(Cl)cc(Br)c2O)cc1 [Example 413]	–	–	–	279 to 282	94.0	18.9	97.9
O=C(N/N=C/c1cc(Cl)cc(Br)c1O)c1cccc(F)c1 [Example 414]	–	–	–	209 to 215	90.0	14.6	97.9
C/C(=N\NC(=O)c1ccccc1C)c1cc(Br)cc(Br)c1O [Example 540]	–	–	–	221 to 222	95.0	0	97.5
C/C(=N\NC(=O)c1ccccc1Br)c1cc(Cl)cc(Cl)c1O [Example 57]	89.5	0	97.3	220 to 222	–	–	–
COc1ccc(/C(C)=N/NC(=O)c2ccccc2O)c(O)c1 [Example 473]	–	–	–	276 to 278	78.0	0	97.5
C/C(=N\NC(=O)c1ccccc1O)c1cc(Br)ccc1O [Example 520]	–	–	–	281 to 303	49.0	14.9	96.7
C/C(=N\NC(=O)c1ccc(C)cc1)c1cc(Br)cc(Br)c1O [Example 542]	–	–	–	258 to 259	100.0	0	95.8
C/C(=N\NC(=O)c1ccccc1Br)c1cccc([N+](=O)[O-])c1O [Example 524]	–	–	–	186 to 188	39.0	9.3	95.8
C/C(=N\NC(=O)c1cccc(C)c1O)c1cc(Cl)cc(Cl)c1O [Example 565]	–	–	–	278 to 279	98.0	12.2	97.4
COc1cccc(C(=O)N/N=C/c2cc(Cl)cc(Br)c2O)c1 [Example 166]	71.9	2.6	97.9	166 to 168	–	–	–
O=C(N/N=C/c1cc(C(F)(F)F)cc(C(F)(F)F)c1O)c1cccc(Cl)c1 [Example 336]	–	–	–	230 to 233	98.0	16.6	97.8
C/C(=N\NC(=O)c1ccc(C(F)(F)F)cc1)c1cc(Br)cc(Br)c1O [Example 548]	–	–	–	255 to 257	98.0	6.7	97.5
COc1cc(O)c(/C(C)=N/NC(=O)c2ccccc2O)c(OC)c1 [Example 586]	–	–	–	182 to 199	31.0	0	87.3
CSc1cc(Br)c(O)c(/C=N/NC(=O)c2ccccc2)c1 [Example 298]	–	–	–	207 to 209	74.6	0.7	95.0
O=C(N/N=C/c1cccc(C(F)(F)F)c1O)c1cccc(Cl)c1 [Example 347]	–	–	–	185 to 187	97.0	13.8	98.4
C/C(=N\NC(=O)c1ccccc1Cl)c1ccc(Cl)cc1O [Example 255]	28.0	3.6	98.2	183 to 184	–	–	–
C/C(=N\NC(=O)c1ccccc1C)c1cccc([N+](=O)[O-])c1O [Example 269]	21.0	0	98.8	193 to 196	–	–	–

SMILES	TLB % Control (Phytophthora infestans; [2]) [%]	inhibition of growth at 0.05 µg/mL ([1]; compound 0.05 μg/mL) [%]	LEPTNO % Inhn. Plus Copper Observed [1, 3] [%]	melting point [°C]	TLB % Control (Phytophthora infestans; [4]) [%]	inhibition of growth at 0.05 µg/mL [1, 5] [%]	LEPTNO % Inhn. Plus Copper Observed [1, 6] [%]
Cc1ccc(C(=O)N/N=C/c2cc(Cl)cc(C(F)(F)F)c2O)cc1 [Example 377]	–	–	–	276 to 278	100.0	29.9	97.6
C/C(=N\NC(=O)c1ccc(C)cc1)c1cc(C(F)(F)F)ccc1O [Example 530]	–	–	–	225 to 229	59.0	9.8	96.2
COc1ccc(C(=O)N/N=C(\C)c2cc(Br)ccc2O)cc1 [Example 516]	–	–	–	202 to 252	59.0	0	97.9
C/C(=N\NC(=O)Cc1ccc(F)cc1)c1cc(Cl)cc(Cl)c1O [Example 17]	69.0	9.4	95.9	209 to 213	–	–	–
COc1ccc(Br)c(/C=N/NC(=O)c2ccccc2)c1O [Example 243]	86.4	5.3	96.7	187 to 189	–	–	–
C/C(=N\NC(=O)c1cccc(C)c1)c1cc(C)ccc1O [Example 313]	–	–	–	182 to 184	28.0	8.5	98.5
Cc1cccc(O)c1C(=O)N/N=C/c1cc(Cl)cc(Cl)c1O [Example 485]	–	–	–	217 to 219	95.0	8	96.7
O=C(N/N=C/c1cccc(Cl)c1O)c1ccc([N+](=O)[O-])cc1 [Example 430]	–	–	–	284 to 287	100.0	16.6	98.2
Cc1cc(C)cc(C(=O)N/N=C/c2cc(Br)cc(Br)c2O)c1 [Example 110]	76.4	19.9	98.2	209 to 211	–	–	–
CCc1ccc(C(=O)N/N=C/c2cc(Cl)cc(Cl)c2O)cc1 [Example 260]	81.0	11.2	97.1	286 to 289	–	–	–
Cc1ccc(C(=O)N/N=C/c2c(Cl)ccc(Cl)c2O)c(O)c1 [Example 374]	–	–	–	248 to 254	98.0	11.1	98.2
O=C(N/N=C/c1cc(Cl)cc(Br)c1O)c1ccc([N+](=O)[O-])cc1 [Example 417]	–	–	–	237 to 250	100.0	10.7	98.2
O=C(N/N=C/c1cc(C(F)(F)F)cc(C(F)(F)F)c1O)c1ccc([N+](=O)[O-])cc1 [Example 339]	–	–	–	244 to 247	100.0	1.5	95.4
N#Cc1cc(F)c(O)c(/C=N/NC(=O)c2ccccc2)c1 [Example 307]	–	–	–	262 to 263	25.0	0	91.3
O=C(N/N=C/c1cc(Cl)cc(Br)c1O)c1ccccc1C(F)(F)F [Example 418]	–	–	–	266 to 274	93.0	0	97.3
Cc1cccc(C(=O)N/N=C/c2c(O)cccc2Cl)c1 [Example 398]	–	–	–	245 to 248	98.0	5.4	94.7
O=C(N/N=C/c1cc(Cl)cc(Cl)c1O)c1cc(Cl)ccc1O [Example 475]	–	–	–	287 to 292	100.0	33.8	97.1
O=C(N/N=C/c1cc(Br)ccc1O)c1ccc(C(F)(F)F)cc1 [Example 184]	70.9	7.1	97.0	219 to 222	–	–	–
O=C(N/N=C/c1cc(C(F)(F)F)cc(C(F)(F)F)c1O)c1ccccc1 [Example 295]	89.8	5.8	98.0	232 to 234	–	–	–
O=C(N/N=C/c1cccc(Cl)c1O)c1ccccc1C(F)(F)F [Example 432]	–	–	–	118 to 121	72.0	0	95.9
